Assay [1] addresses unphosphorylated Mouse ERK2 protein (inactive ERK2) (Mus musculus, UniProt P63085). As to the kind of experiment: Coupled ERK2 (cERK) assay, coupled MEK1/ERK2 IMAP. Type of assay: biochemical. The settings on record: 30 min preincubation with inactive ERK2, then activation by human MEK1; 30 μM ATP; fluorescence polarization; read-out: cERK2 IC50. The text has this:
• 1. M. W. Pantoliana, E. C. Petrella, J. D. Kwasnoski, V. S. Lobanov, J. Myslik, E. Graf, T. Carver, E. Asel, B. A. Springer, P. Lane, F. R. Salemme, High-density miniaturized thermal shift assays as a general strategy for drug discovery, J. Biomol. Screen 6 (2001) 429-440 • 2. J. F. Brandts, L.-N. Lin, Study of strong to ultratight protein interactions using differential scanning calorimetry, Biochemistry 29 (1990) 6927-6940 • 3. Mayhood, T. W., Windsor, W. T., Ligand binding affinity determined by temperature-dependent circular dichroism: Cyclin-dependent kinase 2 inhibitors, Analytical Biochemistry 345 (2005) 187-197 Coupled ERK2 (cERK) Assay:
14 μl of kinase buffer (10 mM Tris.HCl pH 7.2, 10 mM MgCl2, 0.01% Tween-20, 1 mM DTT) containing 0.4 ng unphosphorylated Mouse ERK2 protein was added to each well of a black 384-well assay plate. […] DMSO concentration during initial incubation is 6.7%. ERK2 activity was determined to be insensitive to DMSO concentrations up to 20%. ERK2 was then activated and it's kinase activity measured by the addition of 10 μl kinase buffer with the following components (final concentration per reaction): 2 ng active (phosphorylated) human MEK1 protein and 4 μM (total) ERK2 IMAP substrate peptides (3.9 μM unlabeled IPTTPITTTYFFFK-CONH2 and 100 nM IPTTPITTTYFFFK(5-carboxyfluorescein)-CONH2) and 30 μM ATP. DMSO concentration during ERK activation was 4%. After one hour, reactions were terminated by addition of 60 μl IMAP detections beads in binding buffer (Molecular Devices). Binding was allowed to equilibrate for 30 minutes before reading the plate on an LJL Analyst Fluorescence Polarization plate reader. […] Active compounds were reconfirmed in an independent assay.
(Polarisation of emitted light reports the rotation of a fluorescent probe.)

For a further assay, the target named is ERK protein (Homo sapiens, UniProt P28482). The assay can be described thus: TdF (Temperature Dependence Fluorescence, thermal shift) assay for ERK. The format is binding. The settings on record: read-out: TdF Kd; 3 μM ERK protein, 15, 50 or 100 μM compound, Sypro Orange; Kd calculated from ΔTm; uncertainty estimated ±50%. From the text: Assays: TdF Assay for ERK
The SAR (Structure Activity Relationship) for ERK ligands covered by this invention was interrogated using the TdF (Temperature Dependence Fluorescence) assay or best known as thermal shift assay. The TdF assay was mainly conducted in the 96-well based CHROMO-4 real time fluorescence plate reader (BioRad). The Sypro Orange (Sigma-Aldrich), environmentally sensitive fluorescence dye, was used to monitor the protein folding-unfolding transition. Protein-ligand binding was gauged by the change (or shift) in the unfolding transition temperature (ΔTm) acquired at protein alone with respect to protein in the presence of ligand of interest.
Compound of interest was first prepared in DMSO stock (typical concentration: 10 mM). Sample of 20 μL was then added into the 96-well PCR plate, where it consisted of 3 μM. […] Final percentage of DMSO resided in the sample was 2%. The sample plate was heated from 30° C. to 90° C. with thermal ramping rate of 1 ° C./min. The fluorescence signals were acquired with excitation and emission wavelengths centered at 490 and 560 nm respectively. The instrument thermal stability was ±0.2° C. The melting temperatures (Tm) for ERK protein under aforementioned conditions occurred at 61.0±0.2° C. and 64.8±0.2° C. respectively.
Theoretical Basis for TdF-based Ligand Binding Affinity Constant
The derivation of TdF-based ligand binding affinity constant (Kd) followed closely those previously formulated by Brandts and Lin [2]. In brief, the binding constant of the ligand at the Tm is expressed as below: […]
where T0 is the midpoint of unfolding for unliganded protein and Tm is the midpoint of unfolding in presence of ligand. [LTm] is free ligand at Tm. The ΔHu and ΔCpu are the enthalpy of unfolding and heat capacity change of unfolding for the protein respectively. Following algorithm derived by Winsor and coworker, the T0, ΔHu and ΔCpu can be determined separately from nonlinear regression fitting the protein alone melting curve:
Where F(T) is the observed fluorescence intensity at any temperature T, Yn and Yu are the predicted fluorescence intensities for fully folded and unfolded protein, respectively; mn and mu are slope correction for changes in Yn and Yu with respect to changes in temperature (analogously replace T0 with Tm in the above equation for liganded protein to yield Tm).
where ΔHL(T) is the van't Hoff enthalpy of ligand binding at temperature T and ΔCpL is the heat capacity upon ligand binding. For simplicity, the ΔCpL and ΔHL(T) were set to zero and −7 kcal/mol respectively. The uncertainty in the calculated ligand binding affinity constant was estimated to be ±50%.

Sequence of ERK protein (P28482 2-360): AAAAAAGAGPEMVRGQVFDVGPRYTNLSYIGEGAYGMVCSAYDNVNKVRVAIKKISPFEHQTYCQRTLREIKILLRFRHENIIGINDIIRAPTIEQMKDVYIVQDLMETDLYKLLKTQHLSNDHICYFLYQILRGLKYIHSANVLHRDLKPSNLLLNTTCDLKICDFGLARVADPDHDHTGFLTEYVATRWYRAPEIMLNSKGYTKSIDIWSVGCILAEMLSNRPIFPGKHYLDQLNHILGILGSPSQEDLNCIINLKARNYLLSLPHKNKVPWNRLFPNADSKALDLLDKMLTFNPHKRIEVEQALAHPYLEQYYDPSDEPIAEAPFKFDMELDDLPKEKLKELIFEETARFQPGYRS
Sequence of unphosphorylated Mouse ERK2 protein (inactive ERK2) (P63085 whole entry): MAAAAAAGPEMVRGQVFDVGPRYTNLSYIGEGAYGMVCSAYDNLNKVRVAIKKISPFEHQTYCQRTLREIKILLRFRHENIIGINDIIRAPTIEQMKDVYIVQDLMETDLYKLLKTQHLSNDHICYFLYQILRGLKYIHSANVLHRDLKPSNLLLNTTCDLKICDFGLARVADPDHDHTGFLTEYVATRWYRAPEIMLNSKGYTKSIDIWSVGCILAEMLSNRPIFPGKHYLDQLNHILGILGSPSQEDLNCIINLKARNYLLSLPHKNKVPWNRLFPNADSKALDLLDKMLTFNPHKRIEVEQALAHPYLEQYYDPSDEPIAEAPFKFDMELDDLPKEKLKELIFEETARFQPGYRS

Usually IC50 stands for the concentration that inhibits the measured activity by half. What is called Kd is the free concentration of one partner at which half of the binding sites on the other are occupied at equilibrium, for simple one-to-one binding. With `O=C(Nc1ccc2[nH]nc(-c3ccncc3)c2c1)C1CN(Cc2ccsc2)CCO1` (stereo not drawn) [Compound 3, N-[3-(4-PYRIDINYL)-1H-INDAZOL-5-YL]-4-(3-THIENYLMETHYL)-2-MORPHOLINECARBOXAMIDE], in assay [1], the IC50 worked out at 87.6 nM. Moreover, the dissociation constant Kd at ERK protein is 77 nM. In the case of `O=C(Nc1ccc2[nH]nc(-c3ccncc3)c2c1)C1CN(Cc2ccccc2Br)CCS1` (stereo not drawn) [Compound 6, 4-[(2-BROMOPHENYL)METHYL]-N-[3-(4-PYRIDINYL)-1H-INDAZOL-5-YL]-2-THIOMORPHOLINECARBOXAMIDE], the IC50 in assay [1] was 114 nM. For the same molecule, the dissociation constant Kd at ERK protein is 38 nM.

Regarding `O=C(Nc1ccc2[nH]nc(-c3ccncc3)c2c1)C1CN(Cc2ccccc2Br)CCO1` (stereo not drawn) [Compound 7, 4-[(2-BROMOPHENYL)METHYL]-N-[3-(4-PYRIDINYL)-1H-INDAZOL-5-YL]-2-MORPHOLINECARBOXAMIDE], in assay [1], the half-inhibitory concentration (IC50) worked out at 96.9 nM. Further, on ERK protein, the dissociation constant Kd is 17 nM. Take `O=C(Nc1ccc2[nH]nc(-c3ccncc3)c2c1)C1CN(Cc2cccnc2)CCS1` (stereo not drawn) [Compound 8, N-[3-(4-PYRIDINYL)-1H-INDAZOL-5-YL]-4-(3-PYRIDINYLMETHYL)-2-THIOMORPHOLINECARBOXAMIDE]: in assay [1], the IC50 was found to be 1070 nM. The Kd at ERK protein was 4610 nM. Regarding `O=C(Nc1ccc2[nH]nc(-c3ccncc3)c2c1)C1CN(Cc2ccccn2)CCS1` (stereo not drawn) [Compound 12, N-[3-(4-PYRIDINYL)-1H-INDAZOL-5-YL]-4-(2-PYRIDINYLMETHYL)-2-THIOMORPHOLINECARBOXAMIDE], in assay [1], the half-inhibitory concentration (IC50) turned out to be 1310 nM. The Kd on ERK protein was 674 nM. Take `O=C(Nc1ccc2[nH]nc(-c3ccncc3)c2c1)C1CN(Cc2cscn2)CCS1` (stereo not drawn) [Compound 13, N-[3-(4-PYRIDINYL)-1H-INDAZOL-5-YL]-4-(4-THIAZOLYLMETHYL)-2-THIOMORPHOLINECARBOXAMIDE]: the concentration for half-maximal inhibition (IC50) in assay [1] turned out to be 929 nM. Also, on ERK protein, the Kd is 201 nM.

As for `O=C(Nc1ccc2[nH]nc(-c3ccncc3)c2c1)C1CN(Cc2ccsc2)CCS1` (stereo not drawn) [Compound 14, N-[3-(4-PYRIDINYL)-1H-INDAZOL-5-YL]-4-(3-THIENYLMETHYL)-2-THIOMORPHOLINECARBOXAMIDE], in assay [1], the IC50 amounted to 183 nM. Also, the Kd on ERK protein is 34 nM.

`O=C(Nc1ccc2[nH]nc(-c3ccncc3)c2c1)C1CN(Cc2ccccc2Cl)CCO1` (stereo not drawn) [Compound 15, 4-[(2-CHLOROPHENYL)METHYL]-N-[3-(4-PYRIDINYL)-1H-INDAZOL-5-YL]-2-MORPHOLINECARBOXAMIDE]: the half-inhibitory concentration (IC50) in assay [1] worked out at 77.8 nM. On ERK protein, the Kd is 17 nM. `O=C(Nc1ccc2[nH]nc(-c3ccncc3)c2c1)C1CN(Cc2ccccc2)CCO1` (stereo not drawn) [Compound 20, 4-(PHENYLMETHYL)-N-[3-(4-PYRIDINYL)-1H-INDAZOL-5-YL]-2-MORPHOLINECARBOXAMIDE]: in assay [1], the half-maximal inhibitory concentration (IC50) came to 51.1 nM. Further, the equilibrium dissociation constant (Kd) at ERK protein was 10 nM. For `O=C(Nc1ccc2[nH]nc(-c3ccncc3)c2c1)C1CCCN(Cc2ccccc2Br)C1` (stereo not drawn) [Compound 21, 1-[(2-BROMOPHENYL)METHYL]-N-[3-(4-PYRIDINYL)-1H-INDAZOL-5-YL]-3-PIPERIDINECARBOXAMIDE], in that order: 130 nM and 4 nM. For `O=C(Nc1ccc2[nH]nc(-c3ccncc3)c2c1)C1CCCN(Cc2ccccc2F)C1` (stereo not drawn) [Compound 22, 1-[(2-FLUOROPHENYL)METHYL]-N-[3-(4-PYRIDINYL)-1H-INDAZOL-5-YL]-3-PIPERIDINECARBOXAMIDE], in that order: 27.3 nM and 9 nM.

Take `O=C(Nc1ccc2[nH]nc(-c3ccncc3)c2c1)C1CCCN(Cc2ccccc2Cl)C1` (stereo not drawn) [Compound 23, 1-[(2-CHLOROPHENYL)METHYL]-N-[3-(4-PYRIDINYL)-1H-INDAZOL-5-YL]-3-PIPERIDINECARBOXAMIDE]: the IC50 in assay [1] was 158 nM. The Kd at ERK protein was 3 nM. As to `O=C(Nc1ccc2[nH]nc(-c3ccncc3)c2c1)C1CCCN(Cc2ccccc2)C1` (stereo not drawn) [Compound 24, 1-(PHENYLMETHYL)-N-[3-(4-PYRIDINYL)-1H-INDAZOL-5-YL]-3-PIPERIDINECARBOXAMIDE], the half-maximal inhibitory concentration (IC50) in assay [1] is 239 nM. Moreover, the Kd at ERK protein is 20 nM. `O=C(Nc1ccc2[nH]nc(-c3ccncc3)c2c1)C1CCCNC1` (stereo not drawn) [Compound 25, N-[3-(4-PYRIDINYL)-1H-INDAZOL-5-YL]-3-PIPERIDINECARBOXAMIDE]: the half-inhibitory concentration (IC50) in assay [1] is 631 nM. The Kd on ERK protein is 4500 nM. Consider `CN1CCCC(C(=O)Nc2ccc3[nH]nc(-c4ccncc4)c3c2)C1` (stereo not drawn) [Compound 26, 1-METHYL-N-[3-(4-PYRIDINYL)-1H-INDAZOL-5-YL]-3-PIPERIDINECARBOXAMIDE], for which the IC50 in assay [1] came out at 4870 nM. In addition, the Kd at ERK protein was 1100 nM. Regarding `O=C(Nc1ccc2[nH]nc(-c3ccncc3)c2c1)C1CN(Cc2ccc(Cl)cc2)CCO1` (stereo not drawn) [Compound 27, 4-[(4-CHLOROPHENYL)METHYL]-N-[3-(4-PYRIDINYL)-1H-INDAZOL-5-YL]-2-MORPHOLINECARBOXAMIDE], the half-inhibitory concentration (IC50) in assay [1] stood at 538 nM. In addition, the Kd on ERK protein was 3530 nM. Consider `COc1cccc(CN2CCOC(C(=O)Nc3ccc4[nH]nc(-c5ccncc5)c4c3)C2)c1` (stereo not drawn) [Compound 28, 4-[(3-METHOXYPHENYL)METHYL]-N-[3-(4-PYRIDINYL)-1H-INDAZOL-5-YL]-2-MORPHOLINECARBOXAMIDE], for which, in assay [1], the half-maximal inhibitory concentration (IC50) came to 290 nM. Moreover, the dissociation constant (Kd) on ERK protein is 3620 nM. For `N#Cc1ccc(CN2CCOC(C(=O)Nc3ccc4[nH]nc(-c5ccncc5)c4c3)C2)cc1` (stereo not drawn) [Compound 30, 4-[(4-CYANOPHENYL)METHYL]-N-[3-(4-PYRIDINYL)-1H-INDAZOL-5-YL]-2-MORPHOLINECARBOXAMIDE], in that order: 1280 nM and 3290 nM.

On to `N#Cc1cccc(CN2CCOC(C(=O)Nc3ccc4[nH]nc(-c5ccncc5)c4c3)C2)c1` (stereo not drawn) [Compound 31, 4-[(3-CYANOPHENYL)METHYL]-N-[3-(4-PYRIDINYL)-1H-INDAZOL-5-YL]-2-MORPHOLINECARBOXAMIDE], for which the half-inhibitory concentration (IC50) in assay [1] came to 1180 nM. For the same molecule, the Kd on ERK protein is 2720 nM. Consider `N#Cc1ccccc1CN1CCOC(C(=O)Nc2ccc3[nH]nc(-c4ccncc4)c3c2)C1` (stereo not drawn) [Compound 32, 4-[(2-CYANOPHENYL)METHYL]-N-[3-(4-PYRIDINYL)-1H-INDAZOL-5-YL]-2-MORPHOLINECARBOXAMIDE], for which the IC50 in assay [1] worked out at 383 nM. Besides, at ERK protein, the equilibrium dissociation constant (Kd) was 775 nM. Turning to `COc1ccc(CN2CCOC(C(=O)Nc3ccc4[nH]nc(-c5ccncc5)c4c3)C2)cc1` (stereo not drawn) [Compound 33, 4-[(4-METHOXYPHENYL)METHYL]-N-[3-(4-PYRIDINYL)-1H-INDAZOL-5-YL]-2-MORPHOLINECARBOXAMIDE], the half-maximal inhibitory concentration (IC50) in assay [1] worked out at 226 nM. In addition, the Kd on ERK protein is 1140 nM. With `COc1ccc(CN2CCOC(C(=O)Nc3ccc4[nH]nc(-c5ccncc5)c4c3)C2)c(F)c1` (stereo not drawn) [Compound 38, 4-[(2-FLUORO-4-METHOXYPHENYL)METHYL]-N-[3-(4-PYRIDINYL)-1H-INDAZOL-5-YL]-2-MORPHOLINECARBOXAMIDE], the IC50 in assay [1] amounted to 556 nM. On ERK protein, the equilibrium dissociation constant (Kd) is 588 nM. As to `O=C(Nc1ccc2[nH]nc(-c3ccncc3)c2c1)C1CN(Cc2ccccc2)CCC1O` (stereo not drawn) [Compound 71, 4-HYDROXY-1-(PHENYLMETHYL)-N-[3-(4-PYRIDINYL)-1H-INDAZOL-5-YL]-3-PIPERIDINECARBOXAMIDE], the Kd at ERK protein was 84.1 nM.

The values above are taken from US8946216B2, “Indazole derivatives useful as ERK inhibitors” (Merck Sharp & Dohme Corp., priority 2010, dated 2015).
